Experimental data: patent US20190002492A1, “DERIVATIVES OF ALLOPR[…] OF EPIALLOPR[…] USES THEREOF FOR TREATING A NEUROPATHOLOGICAL CONDITION” (UNIVERSITE DE STRASBOURG, priority 2011, published 2019)
Entries after “also recorded” stand apart in the source; their conditions may differ.

How the values were obtained:
[1] = tested on: human neuroblastoma cells; assay: Whole-cell patch-clamp without GABA in the recording pipette (non-GABAergic effects); assay type: cell-based; details: GABA not added in the recording pipette
Excerpt: The present Invention relates to derivatives of allopregnanolone or of epipregnanolone that primarily and clearly create a cellular effect that is completely independent of the GABAa receptors. In fact, electrophysiological experiments conducted on human neuroblastoma cells using a Patch-Clamp technique, in a Patch-Clamp whole cell configuration, made it possible to see that when the GABA is not in the pipette, i.e., not introduced, or when the GABAa receptors are not activated, said derivatives were capable of inducing a specific cellular activity.
These experiments were carried out under the same recording conditions as the electrophysiological studies described above (A5), with the exception of the GABA, which was not added into the recording pipette.

[2] = tested on: type A GABA channel receptors (GABAa-R); assay: Whole-cell patch-clamp, effect on GABA-induced ionic current; assay type: cell-based, human; details: 0.25 μM compound, GABA 10 μM in the recording pipette, whole cell patch-clamp
Description: The studies were conducted using an electrophysiological approach. The activity of the cells was recorded using the patch-clamp technique in its so-called whole cell configuration. The mediums used for the recordings have the following composition (in mM): NaCl ([…]), KCl (2), CaCl2 (1), MgCl2 (2), HEPES (10) for the medium bathing the cells and NaCl (132), KCl (2), CaCl2 (1), MgCl2 (2), TEA (15), HEPES (10) for the recording pipette, the pH was adjusted in both cases to 7.4 with NaOH. The GABA 10 μM was added into the recording pipette.
After producing a “gigaseal” (Planar patch clamp) between the cellular membrane and the tip of a pipette with an electrical resistance comprised between 4 and 7 MO, the ionic currents were measured using a patch-clamp amplifier (Axopatch B200, Axon Instruments, CA). The acquisition of the signal (acquisition frequency of 10 kHz) was done using an interface card (Digidata 1322A, Axon Instruments, CA) and the pClamp 8 software (Axons Instruments, CA).
The allopregnanolone and the BR053, BR338, BR297 and BR351 derivatives were solubilized in pure ethanol before being diluted in the medium to the desired concentration. The dilution factor was at least equal to 2×10^4, which makes the final concentration of ethanol in the recording solution remain below […] (a concentration not affecting the activity of the GABAa receptor).
Depending on the experiments, the allopregnanolone or the BR053, BR338, BR297 or BR351 derivatives, at the concentration of 0.25 μM, were either added in the recording pipette at the same time as the GABA, or applied to the cell by perfusion.
The application was done by gravity through a multi-path perfusion system made up of glass tubes each having an inner diameter of 1 mm. The selected path was placed across from the recorded cell at approximately 100 μm. The solution was changed by calibrated rotation of the tubes using a stepping motor thus placing the new selected path across from the cell. Synchronously with that rotation, the solenoid valve controlling the flow of the selected path was also opened and the preceding one closed.

Sprague-Dawley rats [3] = assay: Von Frey filament test, painful neuropathy caused by vincristine; assay type: in vivo, rat; details: rats with vincristine neuropathy, 4 mg/kg i.p. every 2 days for 2 weeks
Excerpt: (§1) Adult male Sprague-Dawley rats weighing between 250 and 300 g were used. They came from the company Janvier (le Genest St. Isle, France). The care and handling of the animals were done in accordance with the guidelines from the Council of the European Community (86/609/EC) and in accordance with the ethical rules of the International Association for the Study of Pain. The protocol used to carry out the in vivo studies was subject to examination and authorization granted to Prof. Mensah-Nyagan's team by the Alsatian Department of the Veterinary Public Health Guide for the Care and Use of Laboratory Animals (Approval number 67-186). The rats were housed under standard conditions with a photoperiod of 12 h day/12 h night, with unlimited food and water. The animals spent one acclimatization week before being integrated into the experimental protocols. Each animal was examined daily to detect any signs of deterioration of its health condition, such as dramatic weight loss, a decrease in appetite during chemotherapy and pharmacological treatment.
(§2) Vincristine sulfate (VINC), purchased from Sigma-Aldrich (St. Louis, Mo., USA), was dissolved in a physiological saline solution (NaCl 0.9%) at 0.1 mg/ml and stored at 4° C. The saline solution (NaCl 0.9%) is used as excipient. The VINC is injected daily by intraperitoneal injection (i.p.), in 2 cycles of 5 days separated by 2 days off, at a concentration of 0.1 mg/kg/day. The control animals were injected by i.p. (1 ml/kg) with the excipient using a similar protocol.
(§3) The allopregnanolone in the derivatives according to the invention (BR053 and BR297) were diluted in a hydroxypropylcellulose (HPC) solution (0.3%) used as excipient. The curative treatment with allopregnanolone, BR053 or BR297 began 3 days after the vincristine cycles. Each of these compounds (allopregnanolone, BR053 or BR297) was administered by the intraperitoneal route at a dose of 4 mg/kg at a rate of one injection every 2 days. Thus, over the total duration of the in vivo experiments (14 days), each animal received 7 injections of excipient, allopregnanolone, BR053 or BR297, based on its group, at a dose of 4 mg/kg. The animals were sacrificed 24 hours after the last behavioral test (28th day) to remove tissues that will be used for later histology and electrophysiology studies.
(§4) The mechanical nociceptive sensitivity threshold was evaluated in rats placed in individual Plexiglas boxes (30×30×25 cm) mounted on a raised mesh support thereby allowing access to the surface or arch of the back feet. The presence of allodynia (exaggerated response following a normally […] stimulation) was measured using a series of calibrated von Frey filaments (1, 2, 4, 6, 8, 10, 15, 26, 100, 180 and 300 g; Stoelting, Wood Dale, Ill., USA), which were applied on the sole of the back foot of the animal with increasing force until the filament twisted. The filament was applied for a period of 1 to 2 seconds and the procedure was repeated 5 times at 4-5 second intervals. The withdrawal threshold of the foot was calculated by taking the average of […] repeated stimuli (in grams) that caused a reflex to withdraw the foot. Only vigorous and fast withdrawals of the foot were considered positive. In the experiments, the naïve animals never responded to the 4 g filament and responded 25-30% of the time to the 15 g filament.

Sprague-Dawley rats [4] = assay: Acetone test of thermal allodynia to cold, painful neuropathy caused by vincristine; assay type: in vivo, rat; details: rats with vincristine neuropathy, 4 mg/kg i.p. every 2 days for 2 weeks
Excerpt: as §1, §2, §3
The thermal nociceptive sensitivity threshold to cold was measured in rats placed in individual Plexiglas boxes (30×30×25 cm) mounted on a raised mesh support so as to allow access to the sole of the animal's foot. […] Six measurements (3 per foot) were performed with a latency of 5 minutes between each stimulation. The average latency for withdrawal of the feet (in seconds) was calculated by averaging 6 measurements at each studied point in time. […]

Sprague-Dawley rats [5] = assay: Von Frey mechanical nociceptive sensitivity threshold in healthy animals not treated with vincristine; assay type: in vivo, rat; details: 4 mg/kg every 2 days for 2 weeks
Excerpt: as §1, §3
as §4, with “In the experiments, the naïve animals never responded to the 4 g filament and responded 25-30% of the time to the 15 g filament.” left out

Row | Compound | Induction of cellular activity without GABA (non-GABAergic effect) [1] | Effect on the type A GABA receptor channel or GABAa-R [2] | Effect on mechanical allodynia and mechanical hyperalgesia (Sprague-Dawley rats [3]) | Effect on thermal allodynia to cold (Sprague-Dawley rats [4]) | Anti-nociceptive effect in healthy animals (Sprague-Dawley rats [5])
1 | CC(=O)[C@H]1CCC2C3CC[C@H]4C[C@@H](O)CC[C@]4(C)C3CC(=O)[C@@]21C (stereo partly shown) [BR053] | capable of inducing cellular activity | negative allosteric action; also recorded: Negative allosteric effect | eliminates the symptoms | eliminates the symptoms | does not cause any anti-nociceptive effect
2 | C=CCO[C@H]1CC[C@]2(C)C3CC[C@@]4(C)C(CC[C@@H]4C(C)=O)C3CC[C@H]2C1 (stereo partly shown) [BR297] | capable of inducing cellular activity | only partially mimics the positive allosteric effect; also recorded: Partial positive allosteric effect | eliminates the symptoms | eliminates the symptoms | does not cause any anti-nociceptive effect
